# Laboratory results: patent US10556905B2, “Processes for preparing a diazabicyclooctane compound” (priority 2012, dated 2020)
# Like-named read-outs stand apart in the source and are kept apart here.
# Experiments:
# OXA-2 = biological target: T1, OXA-2 (Escherichia coli, UniProt P0A1V9); assay: biochemical; set-up: species or system P. aeruginosa
# T1 construct: AmpC, TEM-1, KPC-2 or OXA-2 domain excluding signal peptide was amplified with PCR; made in house; host or cells: Escherichia coli BL21 (DE3), pET-28b(+)
# TEM-1 = biological target: T2, TEM-1 (Escherichia coli, UniProt P62593); assay: β-Lactamase inhibitory activity (nitrocefin hydrolysis), TEM-1; type: biochemical; conditions: TEM-1 0.1 nM, 100 μM nitrocefin, pre-incubation 30° C. 10 minutes
# T2 construct: AmpC, TEM-1, KPC-2 or OXA-2 domain excluding signal peptide was amplified with PCR; made in house; host or cells: Escherichia coli BL21 (DE3), pET-28b(+)
# Description: Using Pseudomonas aeruginosa ATCCBAA-47 genome, plasmid pBR322, Klebsiella pneumoniae ATCCBAA-1705, and P. aeruginosa MSC17696 as a template, each DNA for encoding β-lactamase, AmpC, TEM-1, KPC-2 or OXA-2 domain excluding signal peptide was amplified with PCR. Each of the PCR product was incorporated into pET-28b(+)vector (Merck), introduced into Escherichia coli BL21 (DE3) (Merck), and, under induction of 1 mM isopropyl-β-D-(−)-thiogalactopyranoside (Nacalai Tesque), cultured overnight at 20° C. to express AmpC, TEM-1, KPC-2, and OXA-2. After the bacterial cell was collected, AmpC was purified from the cell extract obtained by ultrasonic treatment, using CM Sepharose Fast Flow (GE Healthcare) and HiTrap Heparin HP (GE Healthcare) at 4° C. TEM-1 was purified with HiTrap SPHP (GE Healthcare), HiTrap Q (GE Healthcare) and Mono Q (GE Healthcare), and KPC-2 was purified with HiTrap SPHP. OXA-2 was purified with HiTrap SPHP and HiTrap Heparin HP.
# For the measurement of β-lactamase inhibitory activity, 100 μM (final concentration) nitrocefin (Oxoid) was used as a substrate, and 2.5% DMSO, 10 μg/mL bovine serum derived albumin (Sigma-Aldrich) and 50 mM phosphate buffer at pH 7.0 were used as a reaction solution. […] Nitrocefin was added to each well to be mixed therein, followed by incubation at 30° C. for 20 minutes, and Multiscan Ascent (Thermo Fisher Scientific) was used to measure 492 nm wavelength, thereby measuring nitrocefin hydrolytic activity of β-Lactamase, to determine enzyme inhibitory activity. […] As the inhibitory activity strength, less than 0.1 μM, less than 1 μM, less than 3 μM, less than 10 μM, and 10 μM or more were shown with A, B, C, D, and E respectively.
# KPC-2 = biological target: T3, KPC-2 (Klebsiella pneumoniae, UniProt Q9F663); assay: β-Lactamase inhibitory activity (nitrocefin hydrolysis), KPC-2; type: biochemical; conditions: KPC-2 0.5 nM, 100 μM nitrocefin, pre-incubation 30° C. 10 minutes
# T3 construct: AmpC, TEM-1, KPC-2 or OXA-2 domain excluding signal peptide was amplified with PCR; made in house; host or cells: Escherichia coli BL21 (DE3), pET-28b(+)
# AmpC = biological target: T4, AmpC (Pseudomonas aeruginosa, UniProt P24735); assay: biochemical
# T4 construct: AmpC, TEM-1, KPC-2 or OXA-2 domain excluding signal peptide was amplified with PCR; made in house; host or cells: Escherichia coli BL21 (DE3), pET-28b(+)
# [1] = OXA-2 2 nM, 100 μM nitrocefin, pre-incubation 30° C. 10 minutes, read-out: β-Lactamase inhibitory activity OXA-2 (IC50)
# T2 sequence (P62593 24-286 limits assumed): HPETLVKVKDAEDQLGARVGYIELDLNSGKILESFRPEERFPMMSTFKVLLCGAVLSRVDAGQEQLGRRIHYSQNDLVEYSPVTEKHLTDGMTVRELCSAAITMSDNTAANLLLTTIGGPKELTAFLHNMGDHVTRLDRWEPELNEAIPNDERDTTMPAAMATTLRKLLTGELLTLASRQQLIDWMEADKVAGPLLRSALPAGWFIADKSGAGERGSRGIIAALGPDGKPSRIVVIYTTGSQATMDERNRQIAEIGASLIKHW
# T1 sequence (P0A1V9 22-275): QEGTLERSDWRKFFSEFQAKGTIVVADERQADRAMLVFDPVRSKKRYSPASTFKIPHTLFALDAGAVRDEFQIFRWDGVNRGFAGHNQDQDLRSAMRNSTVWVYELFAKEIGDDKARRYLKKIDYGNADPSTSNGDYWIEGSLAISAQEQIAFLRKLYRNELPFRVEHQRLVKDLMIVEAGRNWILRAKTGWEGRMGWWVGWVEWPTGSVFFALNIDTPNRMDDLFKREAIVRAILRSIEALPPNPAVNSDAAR
# T4 sequence (P24735 27-397): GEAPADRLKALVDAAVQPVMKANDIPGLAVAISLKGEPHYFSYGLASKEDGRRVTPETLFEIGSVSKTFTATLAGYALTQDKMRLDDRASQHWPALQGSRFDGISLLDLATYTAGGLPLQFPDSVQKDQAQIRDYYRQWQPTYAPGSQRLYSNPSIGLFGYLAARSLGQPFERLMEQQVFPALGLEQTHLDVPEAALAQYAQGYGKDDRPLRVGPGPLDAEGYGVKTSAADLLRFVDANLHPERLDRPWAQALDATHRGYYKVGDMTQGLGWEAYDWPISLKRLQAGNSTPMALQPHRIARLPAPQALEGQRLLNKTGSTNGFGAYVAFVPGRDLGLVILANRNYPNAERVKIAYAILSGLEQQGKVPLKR
# T3 sequence (Q9F663 25-293, looked up): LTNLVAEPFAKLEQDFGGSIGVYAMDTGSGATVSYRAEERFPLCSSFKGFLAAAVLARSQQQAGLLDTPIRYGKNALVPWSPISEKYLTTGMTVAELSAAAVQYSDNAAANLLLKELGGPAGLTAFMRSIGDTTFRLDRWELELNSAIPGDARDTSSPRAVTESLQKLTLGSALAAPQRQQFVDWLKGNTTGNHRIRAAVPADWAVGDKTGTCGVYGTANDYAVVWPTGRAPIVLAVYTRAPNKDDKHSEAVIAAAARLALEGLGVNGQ
SMILES,IC50 (OXA-2) [nM],IC50 (TEM-1) [nM],IC50 (KPC-2) [nM],IC50 (AmpC) [nM],IC50 (OXA-2; [1]) [nM]
"O=C(NN1CCOCC1)[C@@H]1CC[C@@H]2CN1C(=O)N2OS(=O)(=O)O (racemic) [Example 55, Sodium (2SR,5RS)—N-(morpholin-4-yl)-7-oxo-6-(sulfooxy)-1,6-diazabicyclo[3.2.1]octane-2-carboxamide]",3000 to 10000,100 to 1000,1000 to 3000,100 to 1000,
"O=C(NOCCN1CCCC1=O)[C@@H]1CC[C@@H]2CN1C(=O)N2OS(=O)(=O)O [Example 93, Sodium (2S,5R)-7-oxo-N-[2-(2-oxopyrrolidin-1-yl)ethoxy]-6-(sulfooxy)-1,6-diazabicyclo[3.2.1]octane-2-carboxamide]",100 to 1000,< 100,100 to 1000,< 100,
"O=C(NOC[C@H]1CCCN1)[C@@H]1CC[C@@H]2CN1C(=O)N2OS(=O)(=O)O [Example 77, (2S,5R)-7-Oxo-N-[(2R)-pyrrolidin-2-ylmethoxy]-6-(sulfooxy)-1,6-diazabicyclo[3.2.1]octane-2-carboxamide]",,< 100,100 to 1000,100 to 1000,100 to 1000
"O=C(NNC(=O)[C@@H]1CC[C@@H]2CN1C(=O)N2OS(=O)(=O)O)c1cocn1 [Example 44, Sodium (2S,5R)—N′-(1,3-oxazol-4-ylcarbonyl)-7-oxo-6-(sulfooxy)-1,6-diazabicyclo[3.2.1]octane-2-carbohydrazide]",1000 to 3000,< 100,< 100,< 100,
"O=C(NOCCO)[C@@H]1CC[C@@H]2CN1C(=O)N2OS(=O)(=O)O [Example 95, Sodium (2S,5R)—N-(2-hydroxyethoxy)-7-oxo-6-(sulfooxy)-1,6-diazabicyclo[3.2.1]octane-2-carboxamide]",1000 to 3000,< 100,< 100,< 100,
"NCCC(=O)NNC(=O)[C@@H]1CC[C@@H]2CN1C(=O)N2OS(=O)(=O)O [Example 27, (2S,5R)—N′-(3-Aminopropanoyl)-7-oxo-6-(sulfooxy)-1,6-diazabicyclo[3.2.1]octane-2-carbohydrazide]",,< 100,1000 to 3000,100 to 1000,1000 to 3000
"O=C(NOCCn1ccnc1)[C@@H]1CC[C@@H]2CN1C(=O)N2OS(=O)(=O)O [Example 86, Sodium (2S,5R)—N-[2-(1H-Imidazol-1-yl)ethoxy]-7-oxo-6-(sulfooxy)-1,6-diazabicyclo[3.2.1]octane-2-carboxamide]",,< 100,100 to 1000,< 100,
"CC(C)(C)OC(=O)NCCONC(=O)[C@@H]1CC[C@@H]2CN1C(=O)N2OS(=O)(=O)O [Example 60, Sodium tert-butyl {2-[({[(2S,5R)-7-oxo-6-(sulfooxy)-1,6-diazabicyclo[3.2.1]oct-2-yl]carbonyl}amino)oxy]ethyl}carbamate]",100 to 1000,< 100,100 to 1000,100 to 1000,
"O=C(NOCCn1cccc1)[C@@H]1CC[C@@H]2CN1C(=O)N2OS(=O)(=O)O [Example 87, Sodium (2S,5R)-7-oxo-N-[2-(1H-pyrrol-1-yl)ethoxy]-6-(sulfooxy)-1,6-diazabicyclo[3.2.1]octane-2-carboxamide]",100 to 1000,< 100,< 100,< 100,
"O=C(NOCCn1ccnc1S(=O)(=O)O)[C@@H]1CC[C@@H]2CN1C(=O)N2OS(=O)(=O)O [Example 88, Disodium 1-{2-[({[(2S,5R)-7-oxo-6-(sulfonateoxy)-1,6-diazabicyclo[3.2.1]oct-2-yl]carbonyl}amino)oxy]ethyl}-1H-Imidazol-2-sulfonate]",,< 100,100 to 1000,100 to 1000,100 to 1000
"C[C@]1(Cn2ccnn2)[C@H](C(=O)O)N2C(=O)C[C@H]2S1(=O)=O [TAZ, tazobactam, reference compound]",,,100 to 1000,,< 100
"O=C(NNC(=O)[C@@H]1CC[C@@H]2CN1C(=O)N2OS(=O)(=O)O)[C@H]1CCCN1 [Example 39, (2S,5R)-7-Oxo-N′-[(2R)-pyrrolidin-2-ylcarbonyl]-6-(sulfooxy)-1,6-diazabicyclo[3.2.1]octane-2-carbohydrazide]",,< 100,1000 to 3000,< 100,1000 to 3000
"O=C(NOCC(=O)N1CCCNCC1)[C@@H]1CC[C@@H]2CN1C(=O)N2OS(=O)(=O)O [Example 92, (2S,5R)—N-[2-(1,4-Diazepan-1-yl)-2-oxoethoxy]-7-oxo-6-(sulfooxy)-1,6-diazabicyclo[3.2.1]octane-2-carboxamide]",,< 100,100 to 1000,< 100,100 to 1000
"O=C(NOC[C@@H]1CCN1)[C@@H]1CC[C@@H]2CN1C(=O)N2OS(=O)(=O)O [Example 75, (2S,5R)—N-[(2S)-Azetidin-2-ylmethoxy]-7-oxo-6-(sulfooxy)-1,6-diazabicyclo[3.2.1]octane-2-carboxamide]",,< 100,100 to 1000,100 to 1000,1000 to 3000
"O=C(NNC(=O)[C@@H]1CC[C@@H]2CN1C(=O)N2OS(=O)(=O)O)[C@@H]1CCCN1 [Example 38, (2S,5R)-7-Oxo-N′-[(2S)-pyrrolidin-2-ylcarbonyl]-6-(sulfooxy)-1,6-diazabicyclo[3.2.1]octane-2-carbohydrazide]",,< 100,100 to 1000,100 to 1000,1000 to 3000
"O=C(NC1CCNCC1)[C@@H]1CC[C@@H]2CN1C(=O)N2OS(=O)(=O)O [MK-7655, reference compound]",,,,,100 to 1000
"NCC(=O)NNC(=O)[C@@H]1CC[C@@H]2CN1C(=O)N2OS(=O)(=O)O (racemic) [Example 26, (2SR,5RS)—N′-(Aminoacetyl)-7-oxo-6-(sulfooxy)-1,6-diazabicyclo[3.2.1]octane-2-carbohydrazide]",,100 to 1000,1000 to 3000,1000 to 3000,
"O=C(NOCCN1CCNCC1)[C@@H]1CC[C@@H]2CN1C(=O)N2OS(=O)(=O)O [Example 73, (2S,5R)-7-Oxo-N-[2-(piperazin-1-yl)ethoxy]-6-(sulfooxy)-1,6-diazabicyclo[3.2.1]octane-2-carboxamide]",,< 100,100 to 1000,< 100,
"CC(C)(C)OC(=O)NNC(=O)[C@@H]1CC[C@@H]2CN1C(=O)N2OS(=O)(=O)O (racemic) [Example 53, Sodium tert-butyl 2-{[(2SR,5RS)-7-oxo-6-(sulfooxy)-1,6-diazabicyclo[3.2.1]oct-2-yl]carbonyl}hydrazinecarboxylate]",,< 100,100 to 1000,100 to 1000,
"CC(C)(C)C(=O)NNC(=O)[C@@H]1CC[C@@H]2CN1C(=O)N2OS(=O)(=O)O [Example 24, Sodium (2S,5R)—N′-(2,2-dimethylpropanoyl)-7-oxo-6-(sulfooxy)-1,6-diazabicyclo[3.2.1]octane-2-carbohydrazide]",,100 to 1000,100 to 1000,100 to 1000,
"O=C([C@@H]1CC[C@@H]2CN1C(=O)N2OS(=O)(=O)O)N1CCCCO1 [Example 71, Sodium (2S,5R)-2-(1,2-oxazinan-2-ylcarbonyl)-6-(sulfooxy)-1,6-diazabicyclo[3.2.1]octane-7-one]",,< 100,100 to 1000,100 to 1000,
"O=C(NNC(=O)[C@@H]1CC[C@@H]2CN1C(=O)N2OS(=O)(=O)O)c1ccccc1 (racemic) [Example 30, Sodium (2SR,5RS)—N′-benzoyl-7-oxo-6-(sulfooxy)-1,6-diazabicyclo[3.2.1]octane-2-carbohydrazide]",,< 100,100 to 1000,100 to 1000,
"CCONC(=O)[C@@H]1CC[C@@H]2CN1C(=O)N2OS(=O)(=O)O (racemic) [Example 57, Sodium (2SR,5RS)—N-ethoxy-7-oxo-6-(sulfooxy)-1,6-diazabicyclo[3.2.1]octane-2-carboxamide]",,< 100,1000 to 3000,100 to 1000,
"CNNC(=O)[C@@H]1CC[C@@H]2CN1C(=O)N2OS(=O)(=O)O (racemic) [Example 19, (2SR,5RS)—N′-Methyl-7-oxo-6-(sulfooxy)-1,6-diazabicyclo[3.2.1]octane-2-carbohydrazide]",,< 100,100 to 1000,100 to 1000,
"NC(=O)[C@@H]1CC[C@@H]2CN1C(=O)N2OS(=O)(=O)O [NXL104, reference compound]",,,,,100 to 1000
